Laboratory results: patent US20080108894A1, “Methods and Systems of Analyzing Clinical Parameters and Methods of Producing Visual Images” (priority 2004, published 2008)
Entries after “also recorded” stand apart in the source; their conditions may differ.

Experiments:
[1] = test system: infarcted myocardium; test: R1 mapping with SI0 map 20 minutes after Gd(DTPA) in dogs 48 h after reperfusion of myocardial infarction; format: in vivo, dog
Procedure: In three dogs (n=3), weighing 18-20 kg, myocardial infarctions (MI) were generated by a 180-minute closed-chest coronary artery occlusion. Forty-eight hours following reperfusion, baseline R10 map and SI0-map (see below) were generated using the inversion-recovery (IR) technique with multiple inversion times (TI) (FIG. 6). Delayed-Enhancement (DE) imaging was carried out exactly 15 minutes after Gd(DTPA) (0.2 mmol/kg) administration. Baseline parametric R10 maps, and corresponding SI0 maps, that cover the left ventricle (LV), in a dog 48 h after myocardial infarction, are shown in FIG. 6. R1 was calculated from the SI vs. TI dependence as detailed herein. The calculated baseline relaxation rate of myocardium was R10=1.03±0.05 s^−1, which was later used for calculating the PIM. For the purpose of generating PIMs, 20 minutes after the administration of Gd(DTPA), high resolution images of the entire heart were acquired with two TIs using the same image localizations and sequence parameters (except the TI) as for the baseline R10 and SI0 maps. Details of selecting the optimum TIs are discussed further below. From these images and from the corresponding SI0 maps, voxel-by-voxel R1 maps were generated. Average R1 values in remote myocardium and infarct core were R1=1.73±0.07 s^−1, and R1=3.22±0.09 s^−1, respectively. R1 in LV chamber blood was R1=2.53±0.05 s^−1. ΔR1 (ΔR1=R1−R10) was calculated automatically for each voxel utilizing the baseline R10 map. Average ΔR1r in the remote viable regions was 0.7±0.07 s^−1, while in the center of the infarct (denoted 100% infarcted) ΔR1c was 2.19±0.09 s^−1. The contribution of any contrast-agent-accumulating infarct islet contributes to the total ΔR1 of that voxel. Therefore, ΔR1 is proportional to the amount of non-viable tissue present in any given voxel. Thus, a percent infarct (PI) scale was created, where the core ΔR1c (maximum R1 enhancement observed in the center of the infarct) was considered 100% whereas the ΔR1r of remote areas was 0%. In the canine model used in the present disclosure, the myocardial infarct was generated by prolonged proximal occlusion of the Left Anterior Descending coronary artery, using an intracoronary balloon catheter. Animals were anesthetized and mechanically ventilated during MRI sessions (using isoflurane). A 1.5 Tesla GE Signa Horizon “Cardiac CV” instrument was used for cardiac MRI. Images were generated in standard consecutive short-axis planes (6 slices covering the entire LV) and one additional three-chamber long-axis view to assess the apex (left ventricular outflow tract view).

[2] = test system: infarcted myocardium; test: R1 mapping (inversion recovery MRI) 24 h and 48 h after PCA in canine reperfused myocardial infarction; format: in vivo, dog; settings: for Average R1r (R1 in remote regions) / Average ΔR1r (ΔR1 in remote regions): remote myocardium
Source text: In FIG. 2, multislice voxel-by-voxel R1 maps (A) and PIMs (B), generated from such images, are shown. The good quality and coregistration of images acquired with varying TI, was confirmed by the R^2 values obtained for the pixel-by-pixel curve-fitting applied to the SI vs. TI dependence. Average R^2 in the myocardium was 0.99±0.005.
Average R10 was 0.98±0.05 s^−1, in agreement with other investigators' findings. […] This proves Gd(ABE-DTTA) to be a PCA suitable for multi-T1 R1 mapping.
In the canine model used in the present disclosure, the myocardial infarct was generated by prolonged proximal occlusion of the Left Anterior Descending coronary artery, using an intracoronary balloon catheter. Animals were anesthetized and mechanically ventilated during MRI sessions (using isoflurane).
A 1.5 Tesla GE Signa Horizon “Cardiac CV” instrument was used for cardiac MRI. Images were generated in standard consecutive short-axis planes (6 slices covering the entire LV) and one additional three-chamber long-axis view to assess the apex (left ventricular outflow tract view).
A 180°-prepared, segmented, fast gradient-echo sequence, was used to determine R1 values of the myocardium using the inversion recovery method. Short axis and long axis images were generated using the following parameters: FOV 300 mm, image matrix 256×256, slice thickness 10 mm, read out flip angle 25°, echo time (TE) 3.32 ms, repetition time (TRp) 7.18 ms, and recycle time (TR) 1200-2000 ms (three R-R intervals, depending on heart rate, but constant throughout an entire given R1 mapping procedure). Inversion times (TI) in the range of 200-1200 ms were used. In theory, 6 different TIs should be sufficient to generate a R1 map. In this disclosure, however, 8-10 TIs were used to ensure accuracy of R1 determination. The R1 values were calculated from the SI vs. TI dependence, applying a three-parameter least-squares curve fitting routine, using the following formula: […]
Since all MRI parameters below reflect the entire volume element in the slice, associated with a given pixel, from this point on the term voxel, rather than pixel, will be used.). The relaxation rate R1 (R1≡1/T1) of each voxel was composed of R10, the myocardial R1 observed in the absence of both infarct and PCA, and ΔR1, the contribution of the PCA present in the voxel:
Using Eq. 2, the R1 map was transformed into a ΔR1 map. The average ΔR1r value of areas remote from the infarct zone (about 600 voxels), was considered representative of 0% infarction.
As a threshold, ΔR1v of all remote voxels where R1v<R1r+2SD, was set to zero.

[3] = 20 minutes after Gd(DTPA) 0.2 mmol/kg
[4] = 20 minutes after Gd(DTPA), ΔR1=R1−R10

## O=C([O-])CN(CCN(CC(=O)[O-])CC(=O)O)CCN(CC(=O)[O-])CC(=O)O.[Gd+3] [Gd(DTPA)]
[1]; [3]
  Average R1 in infarct core: 3.22 ± 0.09 s⁻¹
  Average R1 in remote myocardium: 1.73 ± 0.07 s⁻¹
  R1 in LV chamber blood: 2.53 ± 0.05 s⁻¹
[1]; [4]
  Average ΔR1r in the remote viable regions: 0.7 ± 0.07 s⁻¹
  ΔR1c in the center of the infarct (denoted 100% infarcted): 2.19 ± 0.09 s⁻¹

## Gd(ABE-DTTA)
[2]; 24 h after PCA
  Average R1c (R1 in infarct core): 2.33 ± 0.5 s⁻¹
  Average ΔR1c (ΔR1 in infarct core): 1.21 ± 0.5 s⁻¹
  Average R1r (R1 in remote regions): 1.23 ± 0.06 s⁻¹
  Average ΔR1r (ΔR1 in remote regions): 0.26 ± 0.03 s⁻¹
[2]; 48 h after PCA
  Average R1c (R1 in infarct core): 2.31 ± 0.4 s⁻¹
  Average ΔR1c (ΔR1 in infarct core): 1.27 ± 0.3 s⁻¹
  Average R1r (R1 in remote regions): 1.15 ± 0.08 s⁻¹
  Average ΔR1r (ΔR1 in remote regions): 0.18 ± 0.05 s⁻¹
[2]; between 24 and 48 hours post PCA
  hourly change in R1 in all myocardial areas: less than one percent of the measured R1
[2]; infarct region, after a single administration
  persistence of ΔR1 / agent in the infarct: observable throughout the first week from administration; also recorded: still observable in the infarct region one week after administration
[2]; viable tissue, between 24 and 48 hours post PCA, interpolated
  hourly change in R1: 0.26±0.1 percent/hour
[2]; within the acquisition time frame of about 30-40 minutes
  rate of decay in the infarct: less than 1 % of R1
